Key:
L02 [1] = assay: Cytotoxicity against human L02 cells assessed as increase in LDH leakage by LDH assay; format: cell-based
[2] = Hemolytic activity in rabbit erythrocytes; format: ADME, cell-based, Oryctolagus cuniculus, Erythrocyte; details: read-out: HD50 (the source's name)
L02 [3] = assay: Induction of cell cycle arrest in human L02 cells assessed as G0/G1 phase accumulation at 8 uM by PI staining based flow cytometry analysis (reference value: 53.77 %); details: l02, 8 µM
[4] = Oil-water partition coefficient, logP of compound; format: physicochemical
L02 [5] = assay: Induction of apoptosis in human L02 cells assessed as early apoptotic cells at 10 uM by annexin-V-FITC/PI staining based flow cytometry analysis (reference value: 3.81 %); format: cell-based; details: l02, 10 µM
L02 [6] = assay: Induction of apoptosis in human L02 cells assessed as early apoptotic cells at 8 uM by annexin-V-FITC/PI staining based flow cytometry analysis (reference value: 3.81 %); format: cell-based; details: l02, 8 µM
L02 [7] = assay: Cytotoxicity against human L02 cells by MTT assay; format: cell-based
L02 [8] = assay: Induction of cell cycle arrest in human L02 cells assessed as S phase accumulation at 8 uM by PI staining based flow cytometry analysis (reference value: 38.23 %); details: l02, 8 µM
L02 [9] = assay: Induction of apoptosis in human L02 cells assessed as decrease in ratio of Bcl-2/Bax at 8 to 12 ug/ml measured after 24 hrs by Western blot analysis; format: cell-based; details: l02, 24 h, dose 8-12 µg/ml
L02 [10] = assay: Induction of apoptosis in human L02 cells assessed as late apoptotic cells at 10 uM by annexin-V-FITC/PI staining based flow cytometry analysis (reference value: 0.92 %); format: cell-based; details: l02, 10 µM
L02 [11] = assay: Induction of apoptosis in human L02 cells assessed as late apoptotic cells at 8 uM by annexin-V-FITC/PI staining based flow cytometry analysis (reference value: 0.92 %); format: cell-based; details: l02, 8 µM
L02 [12] = assay: Induction of apoptosis in human L02 cells assessed as upregulation of FAS expression at 8 to 12 ug/ml measured after 24 hrs by Western blot analysis; format: cell-based; details: l02, 24 h, dose 8-12 µg/ml
L02 [13] = assay: Induction of apoptosis in human L02 cells assessed as increase in cleaved caspase 8 level at 8 to 12 ug/ml measured after 24 hrs by Western blot analysis; format: cell-based; details: l02, 24 h, dose 8-12 µg/ml
L02 [14] = assay: Induction of cell cycle arrest in human L02 cells assessed as G0/G1 phase accumulation at 6 uM by PI staining based flow cytometry analysis (reference value: 53.77 %); details: l02, 6 µM
L02 [15] = assay: Induction of apoptosis in human L02 cells assessed as early apoptotic cells at 6 uM by annexin-V-FITC/PI staining based flow cytometry analysis (reference value: 3.81 %); format: cell-based; details: l02, 6 µM
L02 [16] = assay: Induction of apoptosis in human L02 cells assessed as late apoptotic cells at 6 uM by annexin-V-FITC/PI staining based flow cytometry analysis (reference value: 0.92 %); format: cell-based; details: l02, 6 µM
L02 [17] = assay: Induction of cell cycle arrest in human L02 cells assessed as G2/M phase accumulation at 8 uM by PI staining based flow cytometry analysis (reference value: 8 %); details: l02, 8 µM
L02 [18] = assay: Induction of cell cycle arrest in human L02 cells assessed as G2/M phase accumulation at 6 uM by PI staining based flow cytometry analysis (reference value: 8 %); details: l02, 6 µM
L02 [19] = assay: Induction of cell cycle arrest in human L02 cells assessed as S phase accumulation at 6 uM by PI staining based flow cytometry analysis (reference value: 38.23 %); details: l02, 6 µM
L02 [20] = assay: Induction of cell cycle arrest in human L02 cells assessed as G0/G1 phase accumulation at 10 uM by PI staining based flow cytometry analysis (reference value: 53.77 %); details: l02, 10 µM
L02 [21] = assay: Induction of apoptosis in human L02 cells assessed as decrease in caspase 9 level at 8 to 12 ug/ml measured after 24 hrs by Western blot analysis; format: cell-based; details: l02, 24 h, dose 8-12 µg/ml
L02 [22] = assay: Induction of cell cycle arrest in human L02 cells assessed as G2/M phase accumulation at 10 uM by PI staining based flow cytometry analysis (reference value: 8 %); details: l02, 10 µM
L02 [23] = assay: Induction of apoptosis in human L02 cells assessed as decrease in caspase 8 level at 8 to 12 ug/ml measured after 24 hrs by Western blot analysis; format: cell-based; details: l02, 24 h, dose 8-12 µg/ml
L02 [24] = assay: Induction of cell cycle arrest in human L02 cells assessed as S phase accumulation at 10 uM by PI staining based flow cytometry analysis (reference value: 38.23 %); details: l02, 10 µM
L02 [25] = assay: Induction of cell cycle arrest in human L02 cells assessed as G0/G1 phase accumulation at 18 uM by PI staining based flow cytometry analysis (reference value: 53.77 %); details: l02, 18 µM
L02 [26] = assay: Induction of cell cycle arrest in human L02 cells assessed as S phase accumulation at 24 uM by PI staining based flow cytometry analysis (reference value: 38.23 %); details: l02, 24 µM
L02 [27] = assay: Induction of cell cycle arrest in human L02 cells assessed as G2/M phase accumulation at 24 uM by PI staining based flow cytometry analysis (reference value: 8 %); details: l02, 24 µM
L02 [28] = assay: Induction of apoptosis in human L02 cells assessed as early apoptotic cells at 24 uM by annexin-V-FITC/PI staining based flow cytometry analysis (reference value: 3.81 %); format: cell-based; details: l02, 24 µM
L02 [29] = assay: Induction of cell cycle arrest in human L02 cells assessed as G2/M phase accumulation at 18 uM by PI staining based flow cytometry analysis (reference value: 8 %); details: l02, 18 µM
L02 [30] = assay: Induction of apoptosis in human L02 cells assessed as early apoptotic cells at 18 uM by annexin-V-FITC/PI staining based flow cytometry analysis (reference value: 3.81 %); format: cell-based; details: l02, 18 µM
L02 [31] = assay: Induction of cell cycle arrest in human L02 cells assessed as G0/G1 phase accumulation at 24 uM by PI staining based flow cytometry analysis (reference value: 53.77 %); details: l02, 24 µM
L02 [32] = assay: Induction of cell cycle arrest in human L02 cells assessed as G2/M phase accumulation at 26 uM by PI staining based flow cytometry analysis (reference value: 8 %); details: l02, 26 µM
L02 [33] = assay: Induction of cell cycle arrest in human L02 cells assessed as G0/G1 phase accumulation at 26 uM by PI staining based flow cytometry analysis (reference value: 53.77 %); details: l02, 26 µM
L02 [34] = assay: Induction of apoptosis in human L02 cells assessed as late apoptotic cells at 24 uM by annexin-V-FITC/PI staining based flow cytometry analysis (reference value: 0.92 %); format: cell-based; details: l02, 24 µM
L02 [35] = assay: Induction of apoptosis in human L02 cells assessed as early apoptotic cells at 26 uM by annexin-V-FITC/PI staining based flow cytometry analysis (reference value: 3.81 %); format: cell-based; details: l02, 26 µM
L02 [36] = assay: Induction of apoptosis in human L02 cells assessed as late apoptotic cells at 18 uM by annexin-V-FITC/PI staining based flow cytometry analysis (reference value: 0.92 %); format: cell-based; details: l02, 18 µM
L02 [37] = assay: Induction of cell cycle arrest in human L02 cells assessed as S phase accumulation at 18 uM by PI staining based flow cytometry analysis (reference value: 38.23 %); details: l02, 18 µM
L02 [38] = assay: Induction of cell cycle arrest in human L02 cells assessed as S phase accumulation at 26 uM by PI staining based flow cytometry analysis (reference value: 38.23 %); details: l02, 26 µM
L02 [39] = assay: Induction of apoptosis in human L02 cells assessed as late apoptotic cells at 26 uM by annexin-V-FITC/PI staining based flow cytometry analysis (reference value: 0.92 %); format: cell-based; details: l02, 26 µM

Compound	Activity (L02 [1])	HC50 [2]	Activity (L02 [3])	logP [4]	Activity (L02 [5])	Activity (L02 [6])	IC50 (L02 [7])	Activity (L02 [8])	Activity (L02 [10])	Activity (L02 [11])	Activity (L02 [14])	Activity (L02 [15])	Activity (L02 [16])	Activity (L02 [17])	Activity (L02 [18])	Activity (L02 [19])	Activity (L02 [20])	Activity (L02 [22])	Activity (L02 [24])	further results
C[C@@H]1O[C@@H](O[C@H]2[C@H](O[C@H]3CC[C@]4(C)[C@H]5CC=C6[C@@H]7CC(C)(C)CC[C@]7(C(=O)O)CC[C@@]6(C)[C@]5(C)CC[C@H]4C3(C)C)OC[C@H](O[C@@H]3O[C@H](CO)[C@@H](O)[C@H](O)[C@H]3O)[C@@H]2O)[C@H](O)[C@H](O)[C@H]1O [HEDERACOLCHISIDE A1]	Toxic	3.24 µM	67.33%	0.0406	3.51%	17.6%	7.13 µM	32.66%	94.1%	38.6%	62.05%	4.59%	3.11%	2%	8%	29.95%	39.69%	1.88%	58.44%	Activity (L02 [9]): Toxic; Activity (L02 [12]): Toxic; Activity (L02 [13]): Toxic; Activity (L02 [21]): Toxic; Activity (L02 [23]): Toxic
C[C@@H]1O[C@@H](O[C@H]2[C@H](O[C@H]3CC[C@]4(C)[C@H]5CC=C6[C@@H]7CC(C)(C)CC[C@]7(C(=O)O)CC[C@@]6(C)[C@]5(C)CC[C@H]4C3(C)C)OC[C@H](O)[C@@H]2O[C@@H]2O[C@H](CO)[C@@H](O)[C@H](O)[C@H]2O)[C@H](O)[C@H](O)[C@H]1O	Toxic	3.6 µM	56.86%	0.318	2.79%	13.4%	7.49 µM	38.34%	89.3%	27.9%	58.57%	6.87%	2.91%	4.8%	8%	33.43%	50.68%	2%	47.32%	–
C[C@@H]1O[C@@H](O[C@H]2[C@H](O[C@H]3CC[C@@]4(C)[C@@H](CC[C@]5(C)[C@@H]4CC=C4[C@@H]6CC(C)(C)CC[C@]6(C(=O)O)CC[C@]45C)[C@]3(C)CO)OC[C@H](O)[C@@H]2O)[C@H](O)[C@H](O)[C@H]1O [ALPHA-HEDERIN]	Toxic	9.04 µM	–	0.0672	–	–	21 µM	–	–	–	–	–	–	–	–	–	–	–	–	Activity (L02 [25]): 61%; Activity (L02 [26]): 32.48%; Activity (L02 [27]): 8%; Activity (L02 [28]): 17%; Activity (L02 [29]): 8%; Activity (L02 [30]): 16.84%; Activity (L02 [31]): 59.52%; Activity (L02 [32]): 6.72%; Activity (L02 [33]): 52.42%; Activity (L02 [34]): 15.5%; Activity (L02 [35]): 1.98%; Activity (L02 [36]): 8.18%; Activity (L02 [37]): 31%; Activity (L02 [38]): 40.88%; Activity (L02 [39]): 94.2%
